Laboratory results as given in patent US10806726B2, “Methods of using indazole-3-carb oxamides and their use as Wnt/B-catenin signaling pathway inhibitors” (Samumed, LLC, priority 2016, dated 2020).

Test system: KC/GRO in plasma
Assay: Rat Tendinopathy Model (2), plasma biomarker KC/GRO
Format: in vivo
Experimental: Fifty (50 μl) of Collagenase Type IA (10 mg/ml in PBS, pH 7.4, approximately 469 units/mg) (Catalog # C5138, Sigma, St. Louis, Mo.) was injected into the Achilles tendon of both ankles near the osteotendinous junction of male Sprague Dawley CD® IGS rats (CRL, Inc.), using insulin syringes with 28.5 G needle.
Rats were divided into 6 groups, with 6 animals per group except 8 animals in Group 2: Group 1 (sham injection), Group 2 (Collagenase-Vehicle with 0.5% Phx), Group 3 (Collagenase-compound 175 3 mg/mL with 0.5% BA), Group 4 (Collagenase-compound 175 10 mg/mL with 0.5% BA), Group 5 (Collagenase-compound 175 3 mg/mL with 0.5% Phx) and Group 6 (Collagenase-compound 175 10 mg/mL with 0.5% Phx). […] All rats were periodically observed for any pain, illnesses or abnormalities. At various time points, blood was collected for plasma in lithium heparin coated tubes by saphenous vein bleeding. For histology, rats were euthanized using isoflurane, tendons were isolated (n=8 tendons/group), fixed in 10% buffered formalin (Catalog # SF93-4, Fisher, Pittsburgh, Pa.) and H & E histology staining was performed at a secondary site (Pacific Pathology, San Diego, Calif.). For biochemical analysis, tendons were isolated (n=4 tendons/group), flash frozen in liquid nitrogen and then stored at −80° C. for subsequent biochemical analysis (not reported). Additionally, one (1) day after collagenase injection, 4 tendons were collected from Group 2 (vehicle) to observe the induction of inflammation (not reported).
Following manufacturer's instructions, KC/GRO plasma levels were determined using the KC/GRO Immunoassay kit (Cat #900-K57, Peprotech, Rocky Hill, N.J.). Briefly, 96-well plates were coated with the anti-rat KC/GRO capture antibody overnight and washed to remove excess antibody. Plasma samples were incubated in the coated plates for 2 hours at room temperature. Following washes to remove unbound proteins, biotinylated anti-rat KC/GRO detection antibody was added and incubated for 30 mins at room temperature. Following washes to remove unbound excess antibody, avidin-HRP was added and incubated for 30 mins at room temperature. Following washes to remove unbound avidin-HRP, the ABTS substrate was added and the plates were read on the Cytation 3 plate reader (Biotek Inc., Winooski, Vt.) at an absorbance of 525 nm with correction at 450 nm. All samples were processed in triplicate.

COc1ccc(NC(=O)c2n[nH]c3ccc(-c4cncc(CN5CCCCC5)c4)cc23)cn1 [compound 175, N-(6-Methoxypyridin-3-yl)-5-(5-(piperidin-1-ylmethyl)pyridin-3-yl)-1H-indazole-3-carboxamide]
plasma KC/GRO vs vehicle (3 and 10 mg/mL, with either BA or Phx as preservative): significantly decreased the levels of KC/GRO in plasma | Plasma KC/GRO Concentration (Day 0, Group 3, 3 mg/mL, 0.5% BA): 78.2 ± 14.9 pg/mL | Plasma KC/GRO Concentration (Day 0, Group 4, 10 mg/mL, 0.5% BA): 224 ± 40.1 pg/mL | Plasma KC/GRO Concentration (Day 0, Group 5, 3 mg/mL, 0.5% Phx): 112 ± 74.0 pg/mL | Plasma KC/GRO Concentration (Day 0, Group 6, 10 mg/mL, 0.5% Phx): 254 ± 60.6 pg/mL | Plasma KC/GRO Concentration (Day 1, Group 3, 3 mg/mL, 0.5% BA): 472 ± 47.2 pg/mL | Plasma KC/GRO Concentration (Day 1, Group 4, 10 mg/mL, 0.5% BA): 360 ± 31.4 pg/mL | Plasma KC/GRO Concentration (Day 1, Group 5, 3 mg/mL, 0.5% Phx): 416 ± 47.9 pg/mL | Plasma KC/GRO Concentration (Day 1, Group 6, 10 mg/mL, 0.5% Phx): 375 ± 44.4 pg/mL | Plasma KC/GRO Concentration (Day 3, Group 3, 3 mg/mL, 0.5% BA): 449 ± 53.9 pg/mL | Plasma KC/GRO Concentration (Day 3, Group 4, 10 mg/mL, 0.5% BA): 454 ± 52.2 pg/mL | Plasma KC/GRO Concentration (Day 3, Group 5, 3 mg/mL, 0.5% Phx): 374 ± 89.1 pg/mL | Plasma KC/GRO Concentration (Day 3, Group 6, 10 mg/mL, 0.5% Phx): 405 ± 42.1 pg/mL | Plasma KC/GRO Concentration (Day 5, Group 3, 3 mg/mL, 0.5% BA): 561 ± 97.2 pg/mL | Plasma KC/GRO Concentration (Day 5, Group 4, 10 mg/mL, 0.5% BA): 327 ± 49.9 pg/mL | Plasma KC/GRO Concentration (Day 5, Group 5, 3 mg/mL, 0.5% Phx): 431 ± 24.5 pg/mL | Plasma KC/GRO Concentration (Day 5, Group 6, 10 mg/mL, 0.5% Phx): 328 ± 37.1 pg/mL | Plasma KC/GRO Concentration (Day 7, Group 3, 3 mg/mL, 0.5% BA): 445 ± 54.5 pg/mL | Plasma KC/GRO Concentration (Day 7, Group 4, 10 mg/mL, 0.5% BA): 396 ± 92.4 pg/mL | Plasma KC/GRO Concentration (Day 7, Group 5, 3 mg/mL, 0.5% Phx): 422 ± 47.9 pg/mL | Plasma KC/GRO Concentration (Day 7, Group 6, 10 mg/mL, 0.5% Phx): 299 ± 53.9 pg/mL | Plasma KC/GRO Concentration (Day 14, Group 3, 3 mg/mL, 0.5% BA): 319 ± 57.7 pg/mL | Plasma KC/GRO Concentration (Day 14, Group 4, 10 mg/mL, 0.5% BA): 343 ± 59.4 pg/mL | Plasma KC/GRO Concentration (Day 14, Group 5, 3 mg/mL, 0.5% Phx): 505 ± 41.0 pg/mL | Plasma KC/GRO Concentration (Day 14, Group 6, 10 mg/mL, 0.5% Phx): 265 ± 20.8 pg/mL | Plasma KC/GRO Concentration (Day 21, Group 3, 3 mg/mL, 0.5% BA): 150 ± 53.8 pg/mL | Plasma KC/GRO Concentration (Day 21, Group 4, 10 mg/mL, 0.5% BA): 350 ± 25.6 pg/mL | Plasma KC/GRO Concentration (Day 21, Group 5, 3 mg/mL, 0.5% Phx): 226 ± 37.3 pg/mL | Plasma KC/GRO Concentration (Day 21, Group 6, 10 mg/mL, 0.5% Phx): 342 ± 39.7 pg/mL | plasma KC/GRO levels, range (Days 5-21, all four treated groups): 150 to 561 pg/mL
